Data published in patent publication US10246418B2, “Crystal form of lenvatinib methanesulfonate salt and preparation method thereof” (CRYSTAL PHARMATECH CO., LTD., priority 2015, dated 2019).
In brackets after ≈: the same amount, converted by molar mass.

Legend:
[1] = Solubility comparison: saturated solutions in SGF, FaSSIF, FeSSIF and high purity water, concentration by HPLC; conditions: for Solubility: HPLC; for solubility at 24 h: thermodynamic from solid
Experimental: Solubility comparison between crystalline Form M of lenvatinib mesylate of the present disclosure and anhydrate Form C in patent CN1890220A:
Crystalline Form M of lenvatinib mesylate prepared in example 1 and anhydrate Form C in CN1890220A were prepared into saturated solution in pH 1.8 SGF (Simulated gastric fluid), pH 5.0 FeSSIF (Fed state simulated intestinal fluid), FassIF (Fasted state simulated intestinal fluid) and high purity water. Concentrations in the saturated solutions were determined after 24 hours by HPLC.

[2] = Stability assessment of crystalline form by XRPD before and after storage; format: physicochemical; conditions: 7 days
Experimental: FIG. 7a˜7c show XRPD patterns overlay of crystalline Form M of lenvatinib mesylate before and after stored in the following conditions for 7 days: a) sealed in aluminum plastic bags at 25° C./60% RH; b) sealed in aluminum plastic bags at 40° C./75% RH; c) sealed in aluminum plastic bags at 60° C./75% RH.
Stability assessment of Form M of lenvatinib mesylate of the present disclosure:
Three samples of crystalline Form M of lenvatinib mesylate were stored under the following conditions: a) sealed in aluminum plastic bags at 25° C./60% RH; b) sealed in aluminum plastic bags at 40° C./75% RH; c) sealed in aluminum plastic bags at 60° C./75% RH. The samples were tested by XRPD before and after stored for 7 days.

SMILES	Solubility ([1]; FaSSIF (fasted state simulated intestinal fluid), saturated solution, 24 h) [µg/mL]	Solubility ([1]; FeSSIF (fed state simulated intestinal fluid) pH 5.0, saturated solution, 24 h) [µg/mL]	Solubility ([1]; High purity water, saturated solution, 24 h) [µg/mL]	Solubility ([1]; SGF (simulated gastric fluid) pH 1.8, saturated solution, 24 h) [µg/mL]	Crystalline form stability (XRPD pattern before and after storage) ([2]; sealed in aluminum plastic bags at 25° C./60% RH)	Crystalline form stability (XRPD pattern before and after storage) ([2]; sealed in aluminum plastic bags at 40° C./75% RH)	Crystalline form stability (XRPD pattern before and after storage) ([2]; sealed in aluminum plastic bags at 60° C./75% RH)	Solubility in comparison with Form C in patent CN1890220A ([1]; SGF, FaSSIF, FeSSIF, high purity water, 24 h)	solubility at 24 h ([1]; fasted state simulated intestinal fluid (FaSSIF), fassif) [µg/mL]	solubility at 24 h ([1]; fed state simulated intestinal fluid (FeSSIF), pH 5, fessif) [µg/mL]	solubility at 24 h ([1]; high purity water, water) [µg/mL]	solubility at 24 h ([1]; simulated gastric fluid (SGF), pH 1.8, simulated gastric fluid) [µg/mL]
COc1cc2nccc(Oc3ccc(NC(=O)NC4CC4)c(Cl)c3)c2cc1C(N)=O.CS(=O)(=O)O [Form C, reference compound]	1.5	0.3	1000	640								
COc1cc2nccc(Oc3ccc(NC(=O)NC4CC4)c(Cl)c3)c2cc1C(N)=O [Form M, 4-{3-Chloro-4-[(cyclopropylcarbamoyl)amino]phenoxy}-7-methoxy-6-quinolinecarboxamide]					remained unchanged	remained unchanged	remained unchanged	higher solubility	24 (≈ 56.2 µM)	0.4 (≈ 0.937 µM)	1600 (≈ 3750 µM)	690 (≈ 1620 µM)
